According to the kinase profiling compilation of Christmann-Franck et al. (2016):

Legend:
[1] = biological target: PRKACA (human) (UniProt P17612); assay: radiometric filter-binding kinase assay
[2] = biological target: DYRK3 (human) (UniProt O43781); assay: radiometric filter-binding kinase assay
[3] = biological target: EPHB3 (human) (UniProt P54753); assay: radiometric filter-binding kinase assay; conditions: compound 10.0 µM
[4] = biological target: FGFR1 (human) (UniProt P11362); assay: radiometric filter-binding kinase assay
FGFR1 (human), sequence (P11362 whole entry, looked up): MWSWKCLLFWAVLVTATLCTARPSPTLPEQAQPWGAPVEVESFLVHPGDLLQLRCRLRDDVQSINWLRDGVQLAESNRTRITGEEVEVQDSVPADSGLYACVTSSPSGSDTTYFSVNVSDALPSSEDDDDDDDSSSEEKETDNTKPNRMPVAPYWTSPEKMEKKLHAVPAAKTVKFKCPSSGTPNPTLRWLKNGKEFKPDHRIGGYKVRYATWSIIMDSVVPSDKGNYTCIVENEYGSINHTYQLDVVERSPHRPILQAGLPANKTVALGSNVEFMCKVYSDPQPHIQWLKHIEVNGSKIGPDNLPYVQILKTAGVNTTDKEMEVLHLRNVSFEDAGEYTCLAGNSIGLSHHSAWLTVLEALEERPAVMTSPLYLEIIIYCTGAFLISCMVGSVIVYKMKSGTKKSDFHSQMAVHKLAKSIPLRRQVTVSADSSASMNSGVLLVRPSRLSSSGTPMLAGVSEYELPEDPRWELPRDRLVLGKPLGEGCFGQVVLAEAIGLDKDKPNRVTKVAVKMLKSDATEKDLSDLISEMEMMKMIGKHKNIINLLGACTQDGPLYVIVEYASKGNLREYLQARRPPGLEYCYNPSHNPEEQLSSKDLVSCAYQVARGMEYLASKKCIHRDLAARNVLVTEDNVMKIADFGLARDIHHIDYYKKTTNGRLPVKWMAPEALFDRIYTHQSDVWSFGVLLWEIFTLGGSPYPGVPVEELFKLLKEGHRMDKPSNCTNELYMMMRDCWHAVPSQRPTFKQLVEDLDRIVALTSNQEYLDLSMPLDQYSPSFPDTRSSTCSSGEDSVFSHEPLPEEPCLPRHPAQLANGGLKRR

[5] = biological target: MAPKAPK3 (human) (UniProt Q16644); assay: radiometric filter-binding kinase assay
MAPKAPK3 (human), sequence (Q16644 whole entry, looked up): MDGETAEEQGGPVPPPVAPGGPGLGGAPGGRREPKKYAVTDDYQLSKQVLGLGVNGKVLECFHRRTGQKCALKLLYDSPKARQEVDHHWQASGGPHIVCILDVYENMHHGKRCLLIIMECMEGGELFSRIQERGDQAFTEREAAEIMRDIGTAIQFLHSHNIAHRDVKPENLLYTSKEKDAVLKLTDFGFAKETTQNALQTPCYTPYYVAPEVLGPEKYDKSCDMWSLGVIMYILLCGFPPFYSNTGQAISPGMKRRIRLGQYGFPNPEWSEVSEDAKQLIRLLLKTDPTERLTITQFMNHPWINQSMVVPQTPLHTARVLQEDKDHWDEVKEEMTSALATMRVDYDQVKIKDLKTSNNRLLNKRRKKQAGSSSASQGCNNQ

[6] = biological target: MAP2K2 (human) (UniProt P36507); assay: radiometric filter-binding kinase assay
MAP2K2 (human), sequence (P36507 whole entry, looked up): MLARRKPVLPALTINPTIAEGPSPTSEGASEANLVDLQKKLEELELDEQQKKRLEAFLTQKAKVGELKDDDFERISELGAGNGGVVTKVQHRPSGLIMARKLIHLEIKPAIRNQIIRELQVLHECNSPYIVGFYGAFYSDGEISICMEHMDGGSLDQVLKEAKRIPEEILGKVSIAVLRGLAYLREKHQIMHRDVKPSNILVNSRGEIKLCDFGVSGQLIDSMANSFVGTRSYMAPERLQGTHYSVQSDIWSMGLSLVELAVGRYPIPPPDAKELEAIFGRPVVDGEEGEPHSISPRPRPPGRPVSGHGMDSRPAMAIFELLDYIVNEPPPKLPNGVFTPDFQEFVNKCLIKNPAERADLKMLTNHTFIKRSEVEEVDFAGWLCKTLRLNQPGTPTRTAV

[7] = biological target: STK24 (human) (UniProt Q9Y6E0); assay: radiometric filter-binding kinase assay; conditions: compound 1.0 µM
STK24 (human), sequence (Q9Y6E0 whole entry, looked up): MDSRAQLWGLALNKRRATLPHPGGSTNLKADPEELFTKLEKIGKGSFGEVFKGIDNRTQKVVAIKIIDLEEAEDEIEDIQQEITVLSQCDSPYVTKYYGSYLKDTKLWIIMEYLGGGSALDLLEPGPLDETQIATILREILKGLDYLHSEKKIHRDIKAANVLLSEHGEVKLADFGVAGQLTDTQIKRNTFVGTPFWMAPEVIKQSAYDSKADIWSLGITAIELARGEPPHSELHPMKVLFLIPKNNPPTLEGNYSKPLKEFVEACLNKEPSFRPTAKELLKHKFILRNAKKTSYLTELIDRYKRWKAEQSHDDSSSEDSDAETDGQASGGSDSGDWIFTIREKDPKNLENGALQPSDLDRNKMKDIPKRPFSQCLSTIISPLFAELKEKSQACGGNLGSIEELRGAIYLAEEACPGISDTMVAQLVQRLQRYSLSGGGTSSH

[8] = biological target: NEK6 (human) (UniProt Q9HC98); assay: radiometric filter-binding kinase assay
NEK6 (human), sequence (Q9HC98 whole entry, looked up): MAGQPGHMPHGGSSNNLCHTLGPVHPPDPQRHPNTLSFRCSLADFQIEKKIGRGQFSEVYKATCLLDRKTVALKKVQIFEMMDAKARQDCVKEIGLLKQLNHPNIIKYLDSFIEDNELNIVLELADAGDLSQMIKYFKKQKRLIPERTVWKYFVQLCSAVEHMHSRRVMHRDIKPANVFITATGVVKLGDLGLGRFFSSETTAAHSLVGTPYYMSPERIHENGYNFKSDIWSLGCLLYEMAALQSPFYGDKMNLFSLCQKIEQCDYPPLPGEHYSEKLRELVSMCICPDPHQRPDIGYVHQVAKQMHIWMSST

[9] = biological target: CDK16 (human) (UniProt Q00536); assay: KINOMEscan competition binding; conditions: compound 1.0 µM
[10] = biological target: STK32C (human) (UniProt Q86UX6); assay: KINOMEscan competition binding; conditions: compound 1.0 µM
STK32C (human), sequence (Q86UX6 whole entry, looked up): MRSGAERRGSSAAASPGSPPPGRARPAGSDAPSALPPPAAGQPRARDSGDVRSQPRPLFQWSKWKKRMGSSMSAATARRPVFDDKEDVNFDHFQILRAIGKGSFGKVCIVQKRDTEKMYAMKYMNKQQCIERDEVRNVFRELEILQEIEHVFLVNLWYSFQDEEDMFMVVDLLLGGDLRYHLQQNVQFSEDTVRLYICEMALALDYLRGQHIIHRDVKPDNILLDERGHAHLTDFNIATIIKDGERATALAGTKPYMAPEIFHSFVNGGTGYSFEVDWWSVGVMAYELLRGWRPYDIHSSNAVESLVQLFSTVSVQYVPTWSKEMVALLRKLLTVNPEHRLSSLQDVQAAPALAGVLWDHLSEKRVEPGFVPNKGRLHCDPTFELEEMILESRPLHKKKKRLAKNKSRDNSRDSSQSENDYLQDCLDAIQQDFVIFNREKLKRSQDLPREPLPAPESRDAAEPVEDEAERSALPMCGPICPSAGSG

[11] = biological target: ULK1 (human) (UniProt O75385); assay: KINOMEscan competition binding; conditions: compound 1.0 µM
ULK1 (human), sequence (O75385 whole entry, looked up): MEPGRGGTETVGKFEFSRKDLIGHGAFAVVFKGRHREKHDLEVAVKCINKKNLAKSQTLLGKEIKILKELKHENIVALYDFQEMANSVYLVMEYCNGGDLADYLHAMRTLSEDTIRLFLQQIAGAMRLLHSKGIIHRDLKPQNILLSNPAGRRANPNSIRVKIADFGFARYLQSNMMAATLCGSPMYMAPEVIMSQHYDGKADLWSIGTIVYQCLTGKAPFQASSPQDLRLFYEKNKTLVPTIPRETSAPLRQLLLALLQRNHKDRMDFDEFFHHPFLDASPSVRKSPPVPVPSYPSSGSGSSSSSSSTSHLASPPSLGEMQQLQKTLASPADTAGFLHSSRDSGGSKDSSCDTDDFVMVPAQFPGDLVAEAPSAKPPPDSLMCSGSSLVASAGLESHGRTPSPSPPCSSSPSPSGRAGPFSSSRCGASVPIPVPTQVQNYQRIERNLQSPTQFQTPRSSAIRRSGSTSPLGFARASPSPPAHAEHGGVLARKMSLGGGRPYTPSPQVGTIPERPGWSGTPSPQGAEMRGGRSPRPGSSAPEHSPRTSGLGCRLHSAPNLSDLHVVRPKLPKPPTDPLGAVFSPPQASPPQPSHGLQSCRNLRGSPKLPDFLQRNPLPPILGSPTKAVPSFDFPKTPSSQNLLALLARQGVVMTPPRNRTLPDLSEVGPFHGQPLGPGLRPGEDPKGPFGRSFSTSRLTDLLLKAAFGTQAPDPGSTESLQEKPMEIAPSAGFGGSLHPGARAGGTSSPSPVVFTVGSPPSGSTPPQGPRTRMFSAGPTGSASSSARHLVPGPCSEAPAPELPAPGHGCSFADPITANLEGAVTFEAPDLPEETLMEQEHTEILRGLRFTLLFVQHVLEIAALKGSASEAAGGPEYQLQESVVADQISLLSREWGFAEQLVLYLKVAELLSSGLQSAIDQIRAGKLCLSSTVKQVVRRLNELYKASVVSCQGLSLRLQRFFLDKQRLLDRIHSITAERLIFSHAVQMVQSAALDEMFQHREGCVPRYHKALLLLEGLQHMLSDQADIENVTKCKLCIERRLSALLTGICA

[12] = test system: KIT (human), P10721 [D816V]; assay: KINOMEscan competition binding; conditions: compound 1.0 µM
[13] = biological target: TEC (human) (UniProt P42680); assay: KINOMEscan competition binding; conditions: compound 1.0 µM
[14] = biological target: MYLK (human) (UniProt Q15746); assay: KINOMEscan competition binding; conditions: compound 1.0 µM
[15] = biological target: CDKL1 (human) (UniProt Q00532); assay: KINOMEscan competition binding; conditions: compound 1.0 µM
[16] = biological target: DYRK1B (human) (UniProt Q9Y463); assay: KINOMEscan competition binding; conditions: compound 1.0 µM
[17] = biological target: PRKD3 (human) (UniProt O94806); assay: KINOMEscan competition binding; conditions: compound 1.0 µM
[18] = biological target: PDGFRB (human) (UniProt P09619); assay: KINOMEscan competition binding; conditions: compound 1.0 µM
[19] = test system: PIK3CA (human), P42336 [H1047Y]; assay: KINOMEscan competition binding; conditions: compound 1.0 µM
[20] = biological target: ERBB2 (human) (UniProt P04626); assay: KINOMEscan competition binding; conditions: compound 1.0 µM
[21] = biological target: CAMKK1 (human) (UniProt Q8N5S9); assay: KINOMEscan competition binding; conditions: compound 1.0 µM
[22] = biological target: SNRK (human) (UniProt Q9NRH2); assay: KINOMEscan competition binding; conditions: compound 1.0 µM
[23] = biological target: CHEK1 (human) (UniProt O14757); assay: KINOMEscan competition binding; conditions: compound 1.0 µM
[24] = biological target: CDKL2 (human) (UniProt Q92772); assay: KINOMEscan competition binding; conditions: compound 1.0 µM
[25] = biological target: CHUK (human) (UniProt O15111); assay: KINOMEscan competition binding; conditions: compound 1.0 µM
[26] = biological target: CDK18 (human) (UniProt Q07002); assay: KINOMEscan competition binding; conditions: compound 1.0 µM
[27] = biological target: CSNK2A2 (human) (UniProt P19784); assay: KINOMEscan competition binding; conditions: compound 1.0 µM
[28] = test system: KIT (human), P10721 [V559D/V654A]; assay: KINOMEscan competition binding; conditions: compound 1.0 µM
[29] = test system: PIK3CA (human), P42336 [E545K]; assay: KINOMEscan competition binding; conditions: compound 1.0 µM
[30] = test system: MET (human), P08581 [Y1235D]; assay: KINOMEscan competition binding; conditions: compound 1.0 µM
[31] = biological target: MAP2K2 (human) (UniProt P36507); assay: KINOMEscan competition binding; conditions: compound 1.0 µM
[32] = biological target: CAMK2B (human) (UniProt Q13554); assay: KINOMEscan competition binding; conditions: compound 1.0 µM
[33] = biological target: PIP5K1C (human) (UniProt O60331); assay: KINOMEscan competition binding; conditions: compound 1.0 µM
[34] = biological target: CDK14 (human) (UniProt O94921); assay: KINOMEscan competition binding; conditions: compound 1.0 µM
CDK14 (human), sequence (O94921 whole entry, looked up): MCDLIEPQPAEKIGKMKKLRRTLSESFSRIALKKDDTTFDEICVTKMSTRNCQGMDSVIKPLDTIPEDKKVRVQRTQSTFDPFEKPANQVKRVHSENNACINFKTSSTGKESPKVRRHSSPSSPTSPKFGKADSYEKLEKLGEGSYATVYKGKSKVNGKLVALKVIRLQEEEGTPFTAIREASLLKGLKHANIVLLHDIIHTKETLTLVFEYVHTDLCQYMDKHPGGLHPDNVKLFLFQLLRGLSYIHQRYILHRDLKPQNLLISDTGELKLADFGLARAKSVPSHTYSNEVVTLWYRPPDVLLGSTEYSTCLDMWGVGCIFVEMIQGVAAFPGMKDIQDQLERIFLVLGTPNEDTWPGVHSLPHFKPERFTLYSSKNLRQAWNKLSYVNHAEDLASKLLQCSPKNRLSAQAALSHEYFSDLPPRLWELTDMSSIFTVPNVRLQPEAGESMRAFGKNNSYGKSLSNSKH

[35] = biological target: RPS6KA3 KD1 (human) (UniProt P51812); assay: KINOMEscan competition binding; conditions: compound 1.0 µM
[36] = biological target: EGFR (human) (UniProt P00533); assay: KINOMEscan competition binding; conditions: compound 1.0 µM
[37] = biological target: SRPK1 (human) (UniProt Q96SB4); assay: KINOMEscan competition binding; conditions: compound 1.0 µM

DYRK3 (human), sequence (O43781 whole entry, looked up): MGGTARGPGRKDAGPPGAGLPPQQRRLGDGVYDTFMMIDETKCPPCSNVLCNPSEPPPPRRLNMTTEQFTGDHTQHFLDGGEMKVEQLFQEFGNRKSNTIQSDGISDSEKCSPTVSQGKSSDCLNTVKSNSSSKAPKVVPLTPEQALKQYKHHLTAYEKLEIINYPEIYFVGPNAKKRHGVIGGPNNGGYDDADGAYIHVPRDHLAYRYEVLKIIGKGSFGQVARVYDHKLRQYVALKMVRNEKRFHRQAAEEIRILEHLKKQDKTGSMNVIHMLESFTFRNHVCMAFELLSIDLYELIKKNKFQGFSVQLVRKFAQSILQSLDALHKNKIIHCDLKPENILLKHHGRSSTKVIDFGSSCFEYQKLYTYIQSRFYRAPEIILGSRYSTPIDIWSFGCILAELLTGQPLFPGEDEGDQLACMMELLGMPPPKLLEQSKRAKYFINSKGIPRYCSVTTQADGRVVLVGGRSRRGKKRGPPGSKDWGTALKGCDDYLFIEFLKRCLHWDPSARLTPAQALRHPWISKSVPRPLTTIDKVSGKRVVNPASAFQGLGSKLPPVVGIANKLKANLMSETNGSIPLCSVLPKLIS

SMILES: CNc1nc(Nc2ccc(C(=O)N3CCOCC3)cc2OC)ncc1Cl
- residual activity ([1]; compound 1.0 µM): 85%
- residual activity ([1]; compound 10.0 µM): 94%
- residual activity ([2]; compound 1.0 µM): 84%
- residual activity ([2]; compound 10.0 µM): 76%
- residual activity [3]: 101%
- residual activity ([4]; compound 1.0 µM): 89%
- residual activity ([4]; compound 10.0 µM): 86%
- residual activity ([5]; compound 1.0 µM): 120%
- residual activity ([5]; compound 10.0 µM): 81%
- residual activity ([6]; compound 1.0 µM): 91%
- residual activity ([6]; compound 10.0 µM): 86%
- residual activity [7]: 83%
- residual activity ([8]; compound 1.0 µM): 73%
- residual activity ([8]; compound 10.0 µM): 69%
- residual activity [9]: 100%
- kinase still bound, per cent of control [10]: 100%
- kinase still bound, per cent of control [11]: 100%
- kinase still bound, per cent of control [12]: 98%
- kinase still bound, per cent of control [13]: 100%
- residual activity [14]: 75%
- residual activity [15]: 100%
- kinase still bound, per cent of control [16]: 100%
- kinase still bound, per cent of control [17]: 98%
- kinase still bound, per cent of control [18]: 76%
- kinase still bound, per cent of control [19]: 85%
- kinase still bound, per cent of control [20]: 100%
- kinase still bound, per cent of control [21]: 79%
- kinase still bound, per cent of control [22]: 100%
- kinase still bound, per cent of control [23]: 100%
- residual activity [24]: 100%
- kinase still bound, per cent of control [25]: 50%
- residual activity [26]: 98%
- kinase still bound, per cent of control [27]: 74%
- kinase still bound, per cent of control [28]: 100%
- kinase still bound, per cent of control [29]: 100%
- kinase still bound, per cent of control [30]: 100%
- kinase still bound, per cent of control [31]: 84%
- kinase still bound, per cent of control [32]: 89%
- kinase still bound, per cent of control [33]: 99%
- residual activity [34]: 100%
- kinase still bound, per cent of control [35]: 100%
- kinase still bound, per cent of control [36]: 100%
- kinase still bound, per cent of control [37]: 81%
